The assay concerns HeLa S3 cells. The assay can be described thus: Growth inhibitory effect on HeLa cells. It counts as cell-based. The settings on record: 96 h; for Cell count, average ± standard deviation: three runs, control 732 ± 24. Here is the method: Growth inhibitory effect on HeLa cells
Cultured HeLa S3 cells are suspended in an MEM medium (containing 10% bovine fetus serum and 6 mg/100 ml kanamycin) at a concentration of 5×10^4 cells/ml, 1 ml each of the cell suspension is pipetted in 24-hole multi-dishes, and the cells are cultured in a carbon dioxide cultivator with 5% CO2 at 37° C. for 24 hours. Then, 0.1 ml each of drug solutions prepared at predetermined concentrations are added to each dish. Then, the cells are further cultured in the carbon dioxide cultivator for 96 hours. After the culturing, the culture liquor is removed from the dishes, and then 1 ml of PBS [physiological saline solution containing a phosphate buffer (pH 7.2)]is added to the dishes to gently wash the cell surfaces. Then, PBS is removed from the dishes. Then, 1 ml of PBS containing 0.05% trypsin and 0.02% EDTA is added to each dish. The dishes are left standing at room temperature for about 15 minutes. Adhered cells are peeled off, and 0.5 ml of the cell suspension is added to 10 ml of an isotonic solution. Cells are counted by a microcell counter to determine inhibition percent (%) against cell propagation of groups treated with the drug on the basis of the cell count of the control group. Linear expression showing a relationship between the concentration and the inhibition percent are obtained from the inhibition percent of the drug against the cell propagation at the respective concentration according to the least-squares method, and then the drug concentrations IC50 showing a 50% inhibition against the cell propagation are obtained from the linear expression.

Each structure is given as a SMILES string. ≈ marks a conversion by molar mass, not a printed value.

In general, inhibition refers to the drop in the measured response relative to a control, in per cent. Broadly, the IC50 is the concentration at which inhibition is half-maximal. Higher therefore signals lower potency. For the compound `O=C1C=CC2COC(O)CC12` (stereo not drawn) [compound (I), 4-hydroxy-3-oxabicyclo [4.3.0]nona-8-en-7-on], the “Cell count, average ± standard deviation” value runs as follows: (1 μg/ml) 697 ± 58 × 10^3 cells/ml; (3 μg/ml) 784 ± 42 × 10^3 cells/ml; (5 μg/ml) 454 ± 21 × 10^3 cells/ml; (10 μg/ml) 7.1 ± 2.1 × 10^3 cells/ml. For the same compound, under “Homo sapiens, HeLa S3, 1 μg/ml, read-out: Inhibition percent against cell propagation”, the inhibition at 1 µg/mL stood at 4.8%. Under “Homo sapiens, HeLa S3, 3 μg/ml, read-out: Inhibition percent against cell propagation”, the inhibition at 3 µg/mL is -7%. Besides, the inhibition at 5 µg/mL (Homo sapiens, HeLa S3, 5 μg/ml, read-out: Inhibition percent against cell propagation) is 38%. In addition, the inhibition at 10 µg/mL (Homo sapiens, HeLa S3, 10 μg/ml, read-out: Inhibition percent against cell propagation) is 99%. Moreover, for the setting “Homo sapiens, HeLa S3, 50% inhibition against cell propagation, linear least-squares”, the concentration for half-maximal inhibition (IC50) is 5.73 µg/mL (≈ 37.2 µM).

The values are drawn from US4618687A, “Cyclopentenone compound and process for production thereof” (Kyowa Hakko Kogyo Co., Ltd., priority 1984, dated 1986).
